A short description of data set [1]: Antiproliferative activity against human NCI-H322M cells assessed as cell growth at 10 uM measured after 48 hrs by sulforhodamine B assay relative to control. It counts as functional. Particulars: read-out: Activity. A general note: In SRB staining, fixed cells bind dye roughly in proportion to their protein.
Data set [2] can be described thus: Antiproliferative activity against human NCI-H460 cells assessed as cell growth at 10 uM measured after 48 hrs by sulforhodamine B assay relative to control. The format is functional. The conditions noted are these: NCI-H460, 48 h, read-out: Activity.
A short description of data set [3]: Antiproliferative activity against human A549 cells assessed as reduction in cell viability measured after 72 hrs by MTT assay. It counts as functional, cell-based. Particulars: A549, 72 h.
Data set [4] in a line: Antiproliferative activity against human A549/ATCC cells assessed as cell growth at 10 uM measured after 48 hrs by sulforhodamine B assay relative to control. It counts as functional. Particulars: A549, 48 h, read-out: Activity.
The nature of data set [5]: Antiproliferative activity against human NCI-H23 cells assessed as cell growth at 10 uM measured after 48 hrs by sulforhodamine B assay relative to control. The format is functional. Particulars: NCI-H23, 48 h, read-out: Activity.
A short description of data set [6]: Antiproliferative activity against human HCC827 cells assessed as reduction in cell viability measured after 72 hrs by MTT assay. The format is functional, cell-based. Particulars: HCC827, 72 h. A general note: Tetrazolium dyes change colour on reduction, which living cells bring about.
The nature of data set [7]: Antiproliferative activity against human NCI-H226 cells assessed as cell growth at 10 uM measured after 48 hrs by sulforhodamine B assay relative to control. It counts as functional. Particulars: NCI-H226, 48 h, read-out: Activity.
A short description of data set [8]: Antiproliferative activity against human HOP62 cells assessed as cell growth at 10 uM measured after 48 hrs by sulforhodamine B assay relative to control. It counts as functional. The conditions noted are these: HOP-62, 48 h, read-out: Activity.
Data set [9] is described as follows: Aqueous solubility of the compound. The format is physicochemical. The conditions noted are these: buffer.
The nature of data set [10]: Antiproliferative activity against human EKVX cells assessed as cell growth at 10 uM measured after 48 hrs by sulforhodamine B assay relative to control. Particulars: read-out: Activity. The format is functional.
Data set [11] is described as follows: Antiproliferative activity against human NCI-H522 cells assessed as cell growth at 10 uM measured after 48 hrs by sulforhodamine B assay relative to control. It counts as functional. The conditions noted are these: NCI-H522, 48 h, read-out: Activity.
Data set [12] in a line: Antiproliferative activity against human NCI-H460 cells assessed as reduction in cell viability measured after 72 hrs by MTT assay. It counts as functional, cell-based. The conditions noted are these: NCI-H460, 72 h; for CC50: read-out: LC50 (the source's name).
The nature of data set [13]: Antiproliferative activity against human NCI-H1975 cells assessed as reduction in cell viability measured after 72 hrs by MTT assay. Particulars: NCI-H1975, 72 h. The format is functional, cell-based.
Data set [14] is described as follows: Antiproliferative activity against human HOP92 cells assessed as cell growth at 10 uM measured after 48 hrs by sulforhodamine B assay relative to control. The conditions noted are these: HOP-92, 48 h, read-out: Activity. It counts as functional.
Data set [15] can be described thus: Growth inhibition of human HOP92 cells measured after 48 hrs by sulforhodamine B assay. The format is functional. Particulars: HOP-92, 48 h; for CC50: read-out: LC50 (the source's name).
Data set [16] is described as follows: Growth inhibition of human NCI-H322M cells measured after 48 hrs by sulforhodamine B assay. The conditions noted are these: for CC50: read-out: LC50 (the source's name). The format is functional.
Data set [17] can be described thus: Growth inhibition of human HOP62 cells measured after 48 hrs by sulforhodamine B assay. It counts as functional. Particulars: HOP-62, 48 h; for CC50: read-out: LC50 (the source's name).
Data set [18] can be described thus: Growth inhibition of human EKVX cells measured after 48 hrs by sulforhodamine B assay. The format is functional. Particulars: for CC50: read-out: LC50 (the source's name).
The nature of data set [19]: Growth inhibition of human NCI-H226 cells measured after 48 hrs by sulforhodamine B assay. Particulars: NCI-H226, 48 h; for CC50: read-out: LC50 (the source's name). It counts as functional.
A short description of data set [20]: Growth inhibition of human NCI-H23 cells measured after 48 hrs by sulforhodamine B assay. It counts as functional. The conditions noted are these: NCI-H23, 48 h; for CC50: read-out: LC50 (the source's name).
The nature of data set [21]: Growth inhibition of human NCI-H522 cells measured after 48 hrs by sulforhodamine B assay. The format is functional. The conditions noted are these: NCI-H522, 48 h.

Regarding `Cc1n(Cc2ccc3ccccc3n2)cc[n+]1Cc1ccc2ccccc2n1.[Cl-]`, the growth at 10 µM in [1] stood at 103%; in [2], 95%; in [4] it was 88.6%; in [5], 69.8%; in data set [7], 88.1%; in data set [8], 90.5%. Also, the values for the growth at 10 µM in data set [10], in [11] and in data set [14] were 80.7%, 35.9% and 74.5%, respectively. Further, the IC50 (commonly the concentration that inhibits the measured activity by half) in data set [3] was 15 µM; in data set [6] it was 13 µM; in data set [12], 8 µM; in [13] it was 2 µM. Moreover, in [9], the solubility (as a rule, the concentration that dissolves in the medium under given conditions) is on record as more than 80 mM.

For `Cc1n(Cc2ccc3ccccc3n2)cc[n+]1Cc1ccc2ccccc2c1.[Br-]`, the growth at 10 µM in [1] stood at 26%; in data set [2], 10.2%; in data set [4], 33.5%; in data set [5] it was 2.01%; in [7], 12.7%; in data set [8], 13.3%. Besides, the growth at 10 µM in data set [10] was 48.3%; in data set [11], 3.95%; in data set [14], -6.1%. Also, the GI50 (commonly the concentration giving 50% growth inhibition) in [15] amounted to 0.518 µM; in data set [3] it was 1.31 µM; in data set [16], 3.27 µM; in data set [17], 1.53 µM; in data set [18] it was 3.93 µM; in data set [19], 1.86 µM. For the same molecule, the GI50 in [20] was 1.83 µM; in data set [12] it was 0.959 µM; in data set [21], 0.271 µM. The TGI (usually the concentration giving total growth inhibition) in [15] was found to be 3.81 µM; in [3] it was 13.1 µM; in data set [16] it was 14.7 µM; in data set [17], 6.66 µM; in data set [18], 27.6 µM; in data set [19] it was 10.9 µM. The TGI in data set [20] came to 13.4 µM; in data set [12], 14.4 µM; in data set [21] it was 1.46 µM. The CC50 in data set [15] is 27 µM; in [16] it was 40.4 µM; in [17], 34.5 µM; in data set [18], more than 100 µM; in [19] it was 47.5 µM; in [20], 62 µM. Moreover, the CC50 in data set [12] was determined as 47 µM. Besides, the IC50 in data set [3] is 3 µM; in data set [6] it was 9 µM; in [12], 2 µM; in [13], less than 1 µM. Besides, the LC50 (as a rule, the concentration lethal to half of the exposed cells or organisms) in [3] amounted to 43.5 µM. The solubility in [9] is given as less than 5 mM. In data set [21], this molecule gave an LC50 (50% lethal concentration) of 12.4 µM.

On to `c1ccc2cc(Cn3cc[n+](Cc4ccc5ccccc5c4)c3)ccc2c1`, for which the growth at 10 µM in data set [1] is 62.8%; in data set [2], 39.6%; in data set [4], 67.6%; in data set [5] it was 41.6%; in [7], 52.1%; in data set [8], 42.1%. Also, the growth at 10 µM in [10] is 51.6%; in data set [11] it was -11.7%; in [14], -13.3%. In addition, the GI50 in [15] amounted to 0.16 µM; in data set [3], 7.97 µM; in [16], 8.4 µM; in data set [17], 3.26 µM; in data set [18] it was 2.51 µM; in data set [19], 1.72 µM. Moreover, the figures for the GI50 in data set [20], in data set [12] and in [21] were 0.901 µM, 1.27 µM and 0.393 µM, respectively. Further, the TGI in data set [15] worked out at 1.39 µM; in data set [3] it was 22.9 µM; in data set [16], 21.3 µM; in data set [17], 17 µM; in data set [18], 15.5 µM; in data set [19], 14.3 µM. Also, the TGI was determined as 10.1 µM in data set [20], 10.4 µM in data set [12] and 3.11 µM in [21]. In addition, the CC50 in [15] came to 15.2 µM; in data set [16] it was 47.3 µM; in data set [17], 45.9 µM; in data set [18], 4.75 µM; in data set [19], 71.9 µM; in data set [20], 39.4 µM. The CC50 in [12] turned out to be 42 µM. Moreover, the LC50 in data set [3] amounted to 55.3 µM. In addition, the figures for the IC50 in data set [6], in [12] and in data set [13] were 9 µM, 4 µM and 6 µM, respectively. In data set [21], the LC50 (50% lethal concentration) was determined as 26.8 µM.

Regarding `CCc1n(Cc2ccc3ccccc3c2)cc[n+]1Cc1ccc2ccccc2n1.[Cl-]`, the IC50 in data set [6] is 2 µM; in data set [13] it was less than 1 µM. This molecule also came in with a solubility in [9] of more than 10 mM.

As to `[Cl-].c1ccc(-c2n(Cc3ccc4ccccc4n3)cc[n+]2Cc2ccc3ccccc3c2)cc1`, the IC50 in [3] was 4 µM; in [6], 6 µM; in [12], 3 µM; in data set [13], 2 µM. Besides, the solubility in data set [9] is given as more than 10 mM.

As for `OCc1n(Cc2ccc3ccccc3c2)cc[n+]1Cc1ccc2ccccc2c1.[Br-]`, the growth at 10 µM in data set [1] was 78.9%; in data set [2] it was 53.1%; in data set [4], 68.6%; in data set [5] it was 67.7%; in data set [7], 61.6%; in data set [8] it was 75%. Besides, the results for the growth at 10 µM in data set [10] and in data set [14] were 83.3% and -2.81%, respectively. Also, the IC50 is more than 30 µM in data set [3], 12 µM in data set [6], 14 µM in [12] and 7 µM in [13]. Also, the solubility in data set [9] is given as less than 0.5 mM.

For the molecule `CCCCc1n(Cc2ccc3ccccc3n2)cc[n+]1Cc1ccc2ccccc2c1.[Cl-]`, the IC50 was determined as 3 µM in data set [3], 6 µM in data set [6], 3 µM in [12] and 2 µM in data set [13]. For the same molecule, the solubility in data set [9] is more than 10 mM.

As to `[Br-].c1ccc(-c2n(Cc3ccc4ccccc4c3)cc[n+]2Cc2ccc3ccccc3c2)cc1`, the growth at 10 µM in data set [1] is 8.84%; in data set [2], -78.4%; in [4] it was 12.5%; in data set [5], -38.7%; in data set [7], -9.03%; in data set [8] it was -44.8%. For the same molecule, the values for the growth at 10 µM in data set [10] and in data set [14] were 3.5% and -69.7%, respectively. Further, the GI50 in data set [15] is 0.602 µM; in data set [3], 1.78 µM; in data set [16] it was 1.42 µM; in data set [17], 1.46 µM; in data set [18] it was 1.58 µM; in data set [19], 1.26 µM. Also, the results for the GI50 in [20], in data set [12] and in [21] were 0.775 µM, 1.37 µM and 1.07 µM, respectively. Besides, the TGI in [15] stood at 2.28 µM; in data set [3], 3.52 µM; in data set [16], 2.82 µM; in data set [17], 3.23 µM; in data set [18], 3.43 µM; in [19], 2.97 µM. Also, the TGI in data set [20] came out at 2.35 µM; in data set [12] it was 2.87 µM; in [21], 2.58 µM. Besides, the IC50 came out at 4 µM in data set [3], 2 µM in data set [6], 3 µM in [12] and 2 µM in [13]. The CC50 in data set [16] came to 5.61 µM; in data set [20] it was 6.14 µM. The molecule further registered a solubility in data set [9] of less than 0.5 mM.

On to `[Cl-].c1ccc(-c2n(Cc3ccc4ccccc4n3)cc[n+]2Cc2ccc3ccccc3n2)cc1`, for which the IC50 in data set [3] was 14 µM; in data set [6], 8 µM; in [12], 8 µM; in [13], 2 µM. Moreover, the solubility in data set [9] is listed as more than 80 mM.

For the origin of these results see ChEMBL document CHEMBL3872259, “Synthesis, characterization, and in vitro SAR evaluation of N,N'-bis(arylmethyl)-C2-alkyl substituted imidazolium salts” (Bioorg Med Chem Lett, 2017).
